Holding throughout (assay): NCI tumour cell line growth inhibition, 48 h
The test system of assay [1] is A549 NSCLC.
In assay [2] the test system is K-562 leukemia.
Assay [3] deals with SK-MEL-5 melanoma.
Assay [4] relates to SF-539 CNS.
Assay [5] relates to SNB-75 CNS.
For assay [6], the system named is HOP-92 NSCLC.
Assay [7] relates to UACC-257 melanoma.
Assay [8] deals with SF-268 CNS.

Several values for one entry are separate records, joined by “and”; a condition that tells them apart may be missing. Equal values may be shown once.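 Assay format: 96-well plates, 48-hour exposure. GI50: concentration for 50% inhibition of growth. At the TGI there is no net growth.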

On to `CCN(CC)C(=S)SSC(=S)N(CC)CC`, for which the GI50 in assay [1] is 25 µM and 33 µM; in assay [2] it was 25.2 µM and 19.6 µM; in assay [3], 16.6 µM and 14.6 µM; in assay [4] it was 18.8 µM and 17.9 µM; in assay [5] it was 20.7 µM and 18.2 µM; in assay [6], 15 µM and 40.4 µM. The GI50 in assay [7] was 35.4 µM and 34.3 µM; in assay [8] it was 22 µM and 18.6 µM. For the same compound, the TGI in assay [1] is > 71.9 µM and 146 µM; in assay [2], 51.5 µM and 47.3 µM; in assay [3] it was 39.9 µM and 33.5 µM; in assay [4], 38.6 µM and 37.1 µM; in assay [5], > 56.7 µM and 57.3 µM; in assay [6] it was 38.4 µM and 133 µM. For the same compound, the TGI was > 88.2 µM and 148 µM in assay [7]; > 58 µM and 42.6 µM in assay [8].
Take `Cc1ccc(Sc2oc(-c3ccc(C)cc3)nc2[P+](c2ccccc2)(c2ccccc2)c2ccccc2)cc1`: the GI50 was 0.305 µM in assay [1]; 0.302 µM in assay [2]; 0.287 µM in assay [3]; 0.404 µM in assay [4]; 0.154 µM in assay [5]; 0.178 µM in assay [6]. Moreover, the GI50 in assay [7] was 0.303 µM; in assay [8] it was 0.399 µM. The TGI in assay [1] turned out to be 1.24 µM; in assay [2] it was 1.52 µM; in assay [3], 0.785 µM; in assay [4], 1.53 µM; in assay [5] it was 0.846 µM; in assay [6] it was 0.722 µM. Further, the values for the TGI in assay [7] and in assay [8] were 1.15 µM and 1.66 µM, respectively.
As to `O=c1cccc(C#CC#CCCCO)o1`, the GI50 in assay [1] is 17.8 µM; in assay [2] it was 4.08 µM; in assay [3], 12.3 µM; in assay [4], 4.6 µM; in assay [5], 18.2 µM; in assay [6], 2.47 µM. The results for the GI50 in assay [7] and in assay [8] were 3.48 µM and 7.71 µM, respectively. Besides, the TGI is more than 58.8 µM in assay [1]; more than 100 µM in assay [2]; 27.3 µM in assay [3]; more than 43.5 µM in assay [4]; 66.3 µM in assay [5]; 6.13 µM in assay [6]. In addition, the values for the TGI in assay [7] and in assay [8] were 15.8 µM and 18.5 µM, respectively.
As to `O=S(=O)(NC1=NCCN1C(=S)SN1CCn2c1nsc2=S)c1cccc(OC(F)(F)F)c1`, the GI50 is 17.4 µM in assay [1]; 4.47 µM in assay [2]; 16.6 µM in assay [3]; 19.8 µM in assay [4]; 16.2 µM in assay [5]; 4.45 µM in assay [6]. For the same compound, the GI50 in assay [7] is 17.3 µM; in assay [8], 11.2 µM. Besides, the TGI in assay [1] was 44.8 µM; in assay [2], more than 100 µM; in assay [3] it was 32.8 µM; in assay [4] it was 37.7 µM; in assay [5], 38.9 µM; in assay [6], 20.4 µM. The TGI was 38.1 µM in assay [7] and 34.4 µM in assay [8].
Take `CCSc1nc(N)c(C#N)c(-c2ccco2)c1C#N`: the GI50 is 41.4 µM in assay [1]; 43.7 µM in assay [2]; 33.3 µM in assay [3]; 23.3 µM in assay [4]; more than 100 µM in assay [5]; 5.85 µM in assay [6]. Also, the results for the GI50 in assay [7] and in assay [8] were 31.7 µM and 32.1 µM, respectively. For the same compound, the TGI was more than 100 µM in assay [1]; more than 100 µM in assay [2]; more than 100 µM in assay [3]; 69.3 µM in assay [4]; more than 100 µM in assay [5]; 45.5 µM in assay [6]. In addition, the TGI in assay [7] was 80.2 µM; in assay [8], more than 100 µM.
For `CCOC1OC(=O)[C@H]2[C@@H]1[C@@H]1CC[C@H]2O1` (stereo partly drawn), the GI50 in assay [1], in assay [2], in assay [3], in assay [4], in assay [6] and in assay [7] was more than 100 µM each time. Besides, the GI50 in assay [8] is more than 100 µM. In addition, the TGI in assay [1], in assay [2], in assay [3], in assay [4], in assay [5] and in assay [6] was more than 100 µM each time. In addition, the TGI in assay [7] and in assay [8] was more than 100 µM each time.
Turning to `Nc1n[nH]c(N)c1N=Nc1ccc(O)cc1`, the GI50 was 22.5 µM in assay [1]; 9.17 µM in assay [2]; 13.9 µM in assay [3]; 13.1 µM in assay [4]; 18.5 µM in assay [5]; 18.2 µM in assay [6]. In addition, the GI50 is 24.4 µM in assay [7] and 20.5 µM in assay [8]. Further, the TGI in assay [1] was more than 100 µM; in assay [2], more than 100 µM; in assay [3], 30.9 µM; in assay [4], 36.4 µM; in assay [5] it was 41.6 µM; in assay [6] it was 67.8 µM. Besides, the TGI in assay [7] came out at 85.1 µM; in assay [8] it was 82.6 µM.
In the case of `O=C1CCC(N2C(=O)c3cccc(NCCCC4CCN(CCNC(=O)c5cc6c(o5)C(=O)c5ccccc5C6=O)CC4)c3C2=O)C(=O)N1` (stereo not drawn), the GI50 in assay [1] is 0.189 µM; in assay [2], 0.654 µM; in assay [3] it was 0.163 µM; in assay [4], 1.32 µM; in assay [5] it was 1.53 µM; in assay [6], 3.51 µM. The GI50 is 0.632 µM in assay [7] and 2.06 µM in assay [8]. In addition, the TGI in assay [1] was determined as 0.471 µM; in assay [2], 6.3 µM; in assay [3], 0.303 µM; in assay [4] it was 2.59 µM; in assay [5], 2.88 µM; in assay [6], 15.1 µM. In addition, the TGI came out at 1.87 µM in assay [7] and 7.65 µM in assay [8].
As for `CC1=C(C(=O)Nc2ccc(F)c(Cl)c2)C(c2ccccc2O)NC(=O)N1` (stereo not drawn), the GI50 is more than 100 µM in assay [1]; 58.1 µM in assay [2]; 41.2 µM in assay [3]; more than 100 µM in assay [4]; 40 µM in assay [5]; 81.6 µM in assay [6]. For the same compound, the GI50 in assay [7] and in assay [8] was more than 100 µM in each case. The TGI in assay [1], in assay [2], in assay [3], in assay [4], in assay [5] and in assay [6] was more than 100 µM in each case. For the same compound, the TGI in assay [7] and in assay [8] was more than 100 µM in each case.

The values above are taken from PubChem BioAssay (NCI).
